According to patent US9914718B2, “Anhydrous crystalline form of S-equol” (Ausio Pharmaceuticals, LLC, priority 2014, dated 2018):

Experiment: Long-term stability testing at room temperature storage conditions
Type: physicochemical
Experimental: Stability testing: To access its ability to maintain a desired chemical integrity, the stability of anhydrous crystalline polymorph of S-equol was evaluated for a period representative of the shelf-life of a pharmaceutical formulation. Anhydrous crystalline polymorph of S-equol was maintained at room temperature storage conditions, and evaluated for purity and water content.

- Appearance (0 days): white to brown
- Purity (0 days): 100% HPLC area %
- Water Content (0 days): <0.1 g/100 g
- Appearance (626 days): white to brown
- Purity (626 days): 100% HPLC area %
- Water Content (626 days): 0.05 g/100 g
- Appearance (867 days): white to brown
- Purity (867 days): 100% HPLC area %
- Water Content (867 days): 0.05 g/100 g
SMILES: Oc1ccc([C@H]2COc3cc(O)ccc3C2)cc1 [anhydrous crystalline S-equol, S-equol]
